pIC50: −log10 of the molar value. Like-named read-outs stand apart in the source and are kept apart here.

The results in this text go back to patent publication USRE47428E1, “Modulators of methyl modifying enzymes, compositions and uses thereof” (Constellation Pharmaceuticals, Inc., priority 2013, dated 2019).

Test [1] has as its target Y641N EZH2 (Homo sapiens, UniProt Q15910, Y641N). In words: Y641N EZH2 assay, H3K27Me2 oligonucleosomes as substrate. The class given is biochemical. How it is done: (§1) Assays were carried out by mixing rPRC2 together with biotinylated oligonucleosome substrates in the presence of the radio-labeled enzyme co-factor, S-adenosyl-L-methionine (^3H SAM) (Perkin Elmer) and monitoring the enzymatically mediated transfer of tritiated methyl groups from ^3H SAM to histone lysine residues. The amount of resulting tritiated methyl histone product was measured by first capturing the biotinylated oligonucleosomes in streptavidin (SAV) coated FlashPlates (Perkin Elmer), followed by a wash step to remove un-reacted ^3H SAM, and then counting on a TopCount NXT 384 well plate scintillation counter (Perkin Elmer). The final assay conditions for EZH2 were as follows: 50 mM Tris Buffer pH 8.5, 1 mM DTT, 69 μM Brij-35 detergent, 5.0 mM MgCl2, 0.1 mg/mL BSA, 0.2 μM ^3H SAM, 0.2 μM biotinylated oligonucleosomes, 3.6 μM H3K27me3 peptide and 2 nM EZH2.
(§2) A 12.5 μL volume of the HMT enzyme, H3K27me3 peptide and oligonucleosome substrate in assay buffer was added to each well of the assay plate using a Multidrop Combi (Thermo-Fisher). Compounds were pre-incubated with the enzyme for 20 min, followed by initiation of the methyltransferase reaction by addition of 12.5 μL of ^3H SAM in assay buffer (final volume=25 μL). The final concentrations of compounds ranged from a top default concentration of 80 μM down to 0.16 μM in ten 2-fold dilution steps. Reactions were carried out for 60 minutes and quenched with 20 μL per well of 1.96 mM SAH, 50 mM Tris pH 8.5, 200 mM EDTA. Stopped reactions were transferred to SAV coated Flash-plates (Perkin Elmer), incubated for 120 min, washed with a plate washer, and then read on the TopCount NXT (1.0 min/well) to measure the amount of methyl histone product formed during the reaction.

The target of test [2] is EZH2 (Homo sapiens, UniProt Q15910). The test is described as follows: EZH2 assay: rPRC2 methyltransferase, 3H SAM FlashPlate. The class given is biochemical. The note with it: 0.2 μM 3H SAM, 2 nM EZH2. The protocol:
as §1, §2

The test system of test [3] is Karpas422 human lymphoma xenograft. The test is described as follows: Tumor growth inhibition, subcutaneous Karpas422 human lymphoma xenograft model. Format: in vivo, Mus Musculus. The note with it: 160 mg/kg; for TGI (%) / T/C (%) / Tumor Size (mm3) on day 25: Karpas422 xenograft; for TGI (%) / T/C (%): CB-17 SCID mice; for TGI (%) / T/C (%) / Significance: day 25; for T/C (%): treated/control mean tumor volume; for Tumor Size (mm3) on day 25: female CB-17 SCID mice, day 25 after start of treatment, Mean ± SEM; for Significance: one-way ANOVA vs vehicle, tumor volume. The protocol: Number of animals: 50 mice plus spare
Animal supplier: Shanghai SLAC Laboratory Animal Co., LTD.
The Karpas422 tumor cells were maintained in vitro as suspension culture in RPMI1640 medium supplemented with 10% heat inactivated fetal calf serum at 37° C. in an atmosphere of 5% CO2 in air. The tumor cells were routinely subcultured twice weekly. The cells growing in an exponential growth phase were harvested and counted for tumor inoculation.
Each mouse was inoculated subcutaneously at the right flank with the Karpas422 tumor cells (5×10^6) in 0.2 ml of PBS with Matrigel (1:1) for tumor development. Day 23 after tumor inoculation was as day 0 after the start of treatment when the average tumor size reached approximately 300 mm^3. Each group consisted of 10 tumor-bearing mice.
Tumor size was measured three times weekly in two dimensions using a caliper, and the volume was expressed in mm^3 using the formula: V=0.536a×b^2 where a and b are the long and short diameters of the tumor, respectively. The tumor size was then used for calculations of T/C values. The T/C value (in percent) is an indication of antitumor effectiveness; T and C are the mean volumes of the treated and control groups, respectively, on a given day. TGI was calculated for each group using the formula: TGI (%)[1−(Ti−T0)/(Vi−V0)]×100; Ti is the average tumor volume of a treatment group on a given day, T0 is the average tumor volume of the treatment group on the day of treatment start, Vi is the average tumor volume of the vehicle control group on the same day with Ti, and V0 is the average tumor volume of the vehicle group on the day of treatment start.
Experimental Endpoint and Sample Collection
1). Plasma, tumor and muscle in EPZ-6438 group were collected on day 16 after the start of treatment at 6 h after dosing. Plasma, tumor and muscle in vehicle, CPI-524369, CPI-524416 and CPI-591780 groups were collected on day 25 after the start of treatment at 1 h after dosing. 2). All the blood was taken from each animal with EDTA-K2 as anticoagulant. Plasma was divided into two parts. The first part was for PK analysis; the second part was frozen for backup. 3). Tumor was divided into three parts. The first part was snap-frozen for PK; the second part was snap-frozen for PD analysis; the third part was frozen for backup. 4). Muscle was divided into two parts. The first part was snap-frozen for PK; the second part was frozen for backup.
Tumor Growth Inhibition Analysis
(In general: In xenograft studies the graft and the host belong to different species.)

Where [4] appears, read: Y641N EZH2 mutant enzyme, H3K27Me2 oligonucleosomes, read-out: Y641N EZH2 IC50.
Setting [5] is: rPRC2, biotinylated oligonucleosomes, read-out: EZH2 IC50.
[6] abbreviates: EZH2 IC50, rPRC2, biotinylated oligonucleosomes.

Sequence of Y641N EZH2 (Q15910 whole entry Y641N): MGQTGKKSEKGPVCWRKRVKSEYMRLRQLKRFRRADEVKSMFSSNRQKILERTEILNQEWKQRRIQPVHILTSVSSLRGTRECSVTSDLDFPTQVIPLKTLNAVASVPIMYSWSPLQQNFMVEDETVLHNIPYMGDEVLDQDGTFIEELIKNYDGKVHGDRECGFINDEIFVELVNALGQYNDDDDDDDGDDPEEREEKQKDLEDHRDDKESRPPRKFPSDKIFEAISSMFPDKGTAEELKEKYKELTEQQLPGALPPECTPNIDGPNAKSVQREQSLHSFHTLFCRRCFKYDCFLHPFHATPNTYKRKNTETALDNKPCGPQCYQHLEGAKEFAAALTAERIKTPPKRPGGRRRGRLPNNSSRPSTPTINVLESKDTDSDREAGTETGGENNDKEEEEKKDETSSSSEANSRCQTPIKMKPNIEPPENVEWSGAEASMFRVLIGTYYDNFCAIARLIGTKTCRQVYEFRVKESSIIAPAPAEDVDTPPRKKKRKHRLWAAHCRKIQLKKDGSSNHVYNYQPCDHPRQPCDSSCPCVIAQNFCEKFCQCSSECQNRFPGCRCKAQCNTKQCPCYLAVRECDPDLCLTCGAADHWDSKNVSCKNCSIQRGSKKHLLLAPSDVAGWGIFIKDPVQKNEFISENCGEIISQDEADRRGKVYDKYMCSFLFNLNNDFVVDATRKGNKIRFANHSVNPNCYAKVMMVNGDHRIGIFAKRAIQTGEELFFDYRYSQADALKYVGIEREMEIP
Sequence of Y641N EZH2 (O75530 whole entry partner): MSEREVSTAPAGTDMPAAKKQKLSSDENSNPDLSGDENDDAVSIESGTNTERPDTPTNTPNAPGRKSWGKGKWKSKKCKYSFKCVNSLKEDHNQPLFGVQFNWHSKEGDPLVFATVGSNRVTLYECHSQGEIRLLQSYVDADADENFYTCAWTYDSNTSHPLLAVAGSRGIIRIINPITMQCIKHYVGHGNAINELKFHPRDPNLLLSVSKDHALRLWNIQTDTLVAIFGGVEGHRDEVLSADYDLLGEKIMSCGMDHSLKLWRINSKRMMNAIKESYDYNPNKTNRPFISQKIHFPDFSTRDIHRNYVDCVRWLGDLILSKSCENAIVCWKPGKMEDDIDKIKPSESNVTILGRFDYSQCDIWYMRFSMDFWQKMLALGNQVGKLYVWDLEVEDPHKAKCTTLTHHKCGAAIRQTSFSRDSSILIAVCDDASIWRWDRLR
Sequence of Y641N EZH2 (Q15022 whole entry partner): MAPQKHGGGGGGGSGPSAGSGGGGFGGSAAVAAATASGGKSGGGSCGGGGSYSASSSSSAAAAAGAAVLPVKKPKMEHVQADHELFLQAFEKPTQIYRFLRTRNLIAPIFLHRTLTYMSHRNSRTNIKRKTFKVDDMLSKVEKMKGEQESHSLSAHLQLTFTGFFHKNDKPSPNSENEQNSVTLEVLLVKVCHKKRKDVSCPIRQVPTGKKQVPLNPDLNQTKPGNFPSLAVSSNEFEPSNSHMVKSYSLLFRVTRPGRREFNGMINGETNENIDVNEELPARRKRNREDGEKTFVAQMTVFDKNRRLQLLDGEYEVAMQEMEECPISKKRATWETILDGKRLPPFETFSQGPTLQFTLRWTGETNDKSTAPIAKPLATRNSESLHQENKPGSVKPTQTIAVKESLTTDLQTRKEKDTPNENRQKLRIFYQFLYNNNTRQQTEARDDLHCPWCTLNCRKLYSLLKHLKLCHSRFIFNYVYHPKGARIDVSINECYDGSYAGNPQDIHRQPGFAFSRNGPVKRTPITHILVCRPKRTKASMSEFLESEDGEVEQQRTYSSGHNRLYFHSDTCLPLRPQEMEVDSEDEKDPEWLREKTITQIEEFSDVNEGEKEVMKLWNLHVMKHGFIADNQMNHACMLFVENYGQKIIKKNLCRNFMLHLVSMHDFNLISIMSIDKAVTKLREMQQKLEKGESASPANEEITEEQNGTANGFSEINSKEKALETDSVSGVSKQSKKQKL
Sequence of EZH2 (Q15910 whole entry): as the sequence (Q15910 whole entry Y641N) above, with N641Y counted along it
Sequence of EZH2 (O75530 whole entry partner): as the sequence (O75530 whole entry partner) above
Sequence of EZH2 (Q15022 whole entry partner): as the sequence (Q15022 whole entry partner) above

One may read the pIC50 as the IC50 on a negative log10 scale, so that one unit is a factor of ten. In turn, `COc1cc(C)[nH]c(=O)c1CNC(=O)c1c(C)n(C(C)C(C)OC)c2ncccc12` (single isomer, unassigned) [Compound 266, N-((4-methoxy-6-methyl-2-oxo-1,2-dihydropyridin-3-yl)methyl)-1-((2R or 2S, 3R or 3S)-3-methoxybutan-2-yl)-2-methyl-1H-pyrrolo[2,3-b]pyridine-3-carboxamide] showed a pIC50 in test [1] of 6.00 to 7.00.
Turning to `COc1cc(C)[nH]c(=O)c1CNC(=O)c1c(C)n(C(C)C2CCN(S(C)(=O)=O)CC2)c2ccccc12` (single isomer, unassigned) [Compound 336, (R or S)-N-((4-methoxy-6-methyl-2-oxo-1,2-dihydropyridin-3-yl)methyl)-2-methyl-1-(1-(1-(methylsulfonyl)piperidin-4-yl)ethyl)-1H-indole-3-carboxamide], the pIC50 in test [1] (setting [4]) and in test [2] (setting [5]) was > 7.00 throughout.
`COc1cc(C)[nH]c(=O)c1CNC(=O)c1c(C)n(C(C)C2CCN(C(=O)C(C)(C)O)CC2)c2ccccc12` (single isomer, unassigned) [Compound 337, (R or S)-1-(1-(1-(2-hydroxy-2-methylpropanoyl)piperidin-4-yl)ethyl)-N-((4-methoxy-6-methyl-2-oxo-1,2-dihydropyridin-3-yl)methyl)-2-methyl-1H-indole-3-carboxamide]: the pIC50 in test [1] (setting [4]) and in test [2] (setting [5]) was > 7.00 throughout.
Take `COc1cc(C)[nH]c(=O)c1CNC(=O)c1c(C)n(C(C)C2CCN(C3COC3)CC2)c2ccccc12` (single isomer, unassigned) [Compound 341, (R or S)-N-((4-methoxy-6-methyl-2-oxo-1,2-dihydropyridin-3-yl)methyl)-2-methyl-1-(1-(1-(oxetan-3-yl)piperidin-4-yl)ethyl)-1H-indole-3-carboxamide]: the negative-log IC50 (pIC50) in test [1] and in test [2] (setting [6]) was > 7.00 each time.
On to `COc1cc(C)[nH]c(=O)c1CNC(=O)c1c(C)n(C(C)C2CCN(C(=O)C(C)C)CC2)c2ccccc12` (single isomer, unassigned) [Compound 342, (R or S)-1-(1-(1-isobutyrylpiperidin-4-yl)ethyl)-N-((4-methoxy-6-methyl-2-oxo-1,2-dihydropyridin-3-yl)methyl)-2-methyl-1H-indole-3-carboxamide], for which the negative logarithm of the IC50 (pIC50) in test [1] (setting [4]) and in test [2] (setting [5]) was > 7.00 each time.
As for `Cc1cc(OC(F)F)c(CNC(=O)c2c(C)n(C(C)C3CCN(S(C)(=O)=O)CC3)c3ccccc23)c(=O)[nH]1` (single isomer, unassigned) [Compound 344, (R or S)-N-((4-(difluoromethoxy)-6-methyl-2-oxo-1,2-dihydropyridin-3-yl)methyl)-2-methyl-1-(1-(1-(methylsulfonyl)piperidin-4-yl)ethyl)-1H-indole-3-carboxamide], the pIC50 in test [1] (setting [4]) and in test [2] (setting [5]) was > 7.00 each time.
As to `COCCN1CCC(C(C)n2c(C)c(C(=O)NCc3c(OC)cc(C)[nH]c3=O)c3ccccc32)CC1` (single isomer, unassigned) [Compound 359, (R or S)-N-((4-methoxy-6-methyl-2-oxo-1,2-dihydropyridin-3-yl)methyl)-1-(1-(1-(2-methoxyethyl)piperidin-4-yl)ethyl)-2-methyl-1H-indole-3-carboxamide], the pIC50 in test [1] and in test [2] (setting [6]) was > 7.00 throughout.
On to `COc1cc(C)[nH]c(=O)c1CNC(=O)c1c(C)n(C(C)C2CCN(CC(F)F)CC2)c2ccccc12` (single isomer, unassigned) [Compound 362, (R or S)-1-(1-(1-(2,2-difluoroethyl)piperidin-4-yl)ethyl)-N-((4-methoxy-6-methyl-2-oxo-1,2-dihydropyridin-3-yl)methyl)-2-methyl-1H-indole-3-carboxamide], for which, in test [3], the “TGI (%)” value is recorded as 92.75%, the “T/C (%)” value is 22.59%, the “Tumor Size (mm3) on day 25” value came to 385 ± 66 mm3 and the Significance entry is “*** (*** p < 0.001)”.
In the same order, the values of `COc1cc(C)[nH]c(=O)c1CNC(=O)c1c(C)n(C(C)C2CCN(CC(F)(F)F)CC2)c2ccccc12` (single isomer, unassigned) [Compound 365, (R or S)-N-((4-methoxy-6-methyl-2-oxo-1,2-dihydropyridin-3-yl)methyl)-2-methyl-1-(1-(1-(2,2,2-trifluoroethyl)piperidin-4-yl)ethyl)-1H-indole-3-carboxamide] are 97.25%, 18.72%, 319 ± 67 mm3 and “*** (*** p < 0.001)”.
In the case of `CCc1cc(C)[nH]c(=O)c1CNC(=O)c1c(C)n(C(C)C2CCN(C)CC2)c2ccccc12` (single isomer, unassigned) [Compound 366, (R or S)-N-((4-ethyl-6-methyl-2-oxo-1,2-dihydropyridin-3-yl)methyl)-2-methyl-1-(1-(1-methylpiperidin-4-yl)ethyl)-1H-indole-3-carboxamide], the pIC50 in test [1] and in test [2] (setting [6]) was > 7.00 in each case.
With `Cc1cc(C)c(CNC(=O)c2c(C)n(C(C)C3CCN(C4COC4)CC3)c3ccccc23)c(=O)[nH]1` (single isomer, unassigned) [Compound 375, (R or S)-N-((4,6-dimethyl-2-oxo-1,2-dihydropyridin-3-yl)methyl)-2-methyl-1-(1-(1-(oxetan-3-yl)piperidin-4-yl)ethyl)-1H-indole-3-carboxamide], the pIC50 in test [1] and in test [2] (setting [6]) was > 7.00 throughout.
